In patent publication US7943137B2, “FPRL1 ligands and use thereof” (Takeda Pharmaceutical Company Limited, priority 2002, dated 2011):
Where a SMILES comes first, the peptide text is derived from it. Where no end group is shown, it is not given here. The star is where a group is joined. For = O=C*

Tests used:
[1] = tested on: FPRL1-GFP fusion protein; experiment: Intracellular transition (internalization) of FPRL1-GFP fusion protein expressed in CHO cells; type: cell-based, human; conditions: 37° C., one hour, Cellomics ArrayScan
Protocol: CHO cell line, in which a protein, wherein GFP (Green Fluorescent Protein) is fused to the C-terminus of human FPRL1, is stably expressed, was established using an expression plasmid for animal cells by publicly known method. For assay of intracellular transition of the protein, the cells at growth phase was seeded at the concentration of 40000 cells/well on 96-well plate (Packard, View-Plate™-96, Black), and cultured for overnight at 37° C. under 5% CO2. Firstly, the cells into the well were washed with assay buffer (HBSS (GibcoBRL) supplemented with 0.1% bovine serum albumin (BSA)). Then, 100 μl of the assay buffer containing a test sample were added to the well and incubated at 37° C. under 5% CO2 for one hour. Subsequently, 100 μl/well of cell fixation solution (PBS containing 4% paraformaldehyde (Ca/Mg free)) were added to the well and stood at room temperature for 30 minutes. After removing the cell fixation solution and washing the cells with Ca/Mg free PBS, a labeling solution (3.13 μg/ml of wheat germ aggulutinin (Molecular Probe, W-849) and 5 μg/ml of Hoechst-containing Ca/Mg free PBS) was added (50 μl/well) and stood at room temperature for 20 minutes. After removing the labeling solution, the cells were washed with Ca/Mg free PBS (200 μl/well) to replace the same (200 μl/well). […]

[2] = tested on: FPRL1-GFP fusion protein-expressing CHO cells; experiment: Cell migration stimulating activity to FPRL1-GFP fusion protein-expressing CHO cells; type: cell-based, human; conditions: chemotaxis chamber, 37° C., 4 hours, FIG. 24
Protocol: Using FPRL1-GFP fusion protein-expressing CHO cells, which are described in Example 18, a cell migration activity of the above cells by stimulation using formylated peptide was investigated.
The 96-well disposable chemotaxis chamber (ChemoTx-96, Neuro Probe) was used for assay. Firstly, to bottom well of the chamber, a test sample diluted with DMEM (Invitrogen) containing 0.5% BSA was added. Then, a polycarbonate filter, which is precoated with 10 μg/ml bovine fibronectin (Yagai) on both sides, was fixed on the chamber, and contacted with the test sample. Next, suspension for FPRL1-GFP fusion protein-expressing CHO cells was put onto the filter at 96-well site as a droplet. The chamber was covered, and cultured at 37° C. for 4 hours under conditions of 5% CO2. The cell suspension was prepared as follows: the aforementioned CHO cells at growth phase, which had been precultured in 150 cm^2 flask for culture, were peal off using trypsin/EDTA; the cell suspension obtained was centrifuged to get cell precipitation; and after washing with PBS once, the cells were resuspended in DMEM medium containing 0.5% BSA at the concentration of 3.6×10^6 cells/ml. […] For this filter, absorbance at 595 nm was measured using microplate reader.

[3] = molecular target: T1, human FPRL1 (Homo sapiens, UniProt P25090); experiment: Inhibiting activity for intracellular cAMP production in human FPRL1-expressing CHO cells; type: cell-based; conditions: comparison of purified ligand and chemical preparation, FIG. 14
T1 construct: expressed in transfected cells; host or cells: CHO cells (clone No. 8)
T1 sequence (P25090 1-351): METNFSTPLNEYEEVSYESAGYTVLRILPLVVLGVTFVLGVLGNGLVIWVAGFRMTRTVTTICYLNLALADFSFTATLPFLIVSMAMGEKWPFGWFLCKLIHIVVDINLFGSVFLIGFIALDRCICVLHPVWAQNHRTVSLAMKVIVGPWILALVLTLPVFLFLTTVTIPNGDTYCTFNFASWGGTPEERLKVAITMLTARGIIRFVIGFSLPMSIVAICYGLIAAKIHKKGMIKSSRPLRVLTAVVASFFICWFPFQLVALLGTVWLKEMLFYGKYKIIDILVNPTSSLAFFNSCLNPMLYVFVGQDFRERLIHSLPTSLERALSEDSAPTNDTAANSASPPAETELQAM
Text: The term “Peptide (nM)” on horizontal axis and “Inhibition (5)” on vertical axis means a concentration of peptide (nM) and an inhibiting activity for intracellular cAMP production (Inhibition (%)), respectively. Closed triangle represents an activity of the intrinsic FPRL1 ligand P1, which has been purified in Example 7. It is derived from fr. 24-25 of the final purified preparation uRPC C2/C18 SC2.1/10. The concentration for peptide is deduced from the absorbance at 215 nm of final purification chromatogram. Closed circle indicates an activity of 16 amino acid peptide containing N-terminal fifteen amino acids of porcine cytochrome B, at which synthetic N-terminus is formylated (formyl-MTNIRKSHPLMKIINN).
Activity of porcine intrinsic FPRL1 ligand P1, which was purified in Example 7, and activity of 16 amino acid-peptide (formyl-MTNIRKSHPLMKIINN, SEQ ID NO: 18), comprising 15 amino acids at N-terminus of N-terminally formylated porcine cytochrome B, wherein the sequence was deduced from structure analysis, were compared using an inhibiting activity for intracellular cAMP production in human […] CHO cells as an index (FIG. 14).

inhibiting activity for intracellular cAMP production [3] | Molecule | intracellular transition of FPRL1-GFP protein (MemCyto Above Threshold) [1] | cell migration stimulating activity (absorbance at 595 nm) [2]
– | CSCC[C@H](NC=O)C(=O)N[C@@H](Cc1ccccc1)C(=O)N[C@@H](C)C(=O)N[C@@H](CC(=O)O)C(=O)N[C@@H](CCCNC(=N)N)C(=O)N[C@@H](Cc1c[nH]c2ccccc12)C(=O)N[C@@H](CC(C)C)C(=O)N[C@@H](Cc1ccccc1)C(=O)N[C@@H](CO)C(=O)N[C@H](C(=O)N[C@@H](CC(N)=O)C(=O)N[C@@H](Cc1c[nH]cn1)C(=O)N[C@@H](CCCCN)C(=O)O)[C@@H](C)O [hfCYOX-1(1-13)] (For-MFADRWLFSTNHK-OH; C-terminus assumed) | concentration-dependent transition of FPRL1-GFP protein from cell membrane to cytoplasm | bell-shaped dose-dependent cell migration stimulating activity
– | CSCC[C@H](NC=O)C(=O)N[C@@H](Cc1ccccc1)C(=O)N[C@H](C(=O)N[C@@H](CC(N)=O)C(=O)N[C@@H](CCCNC(=N)N)C(=O)N[C@@H](Cc1c[nH]c2ccccc12)C(=O)N[C@@H](CC(C)C)C(=O)N[C@@H](Cc1ccc(O)cc1)C(=O)N[C@@H](CO)C(=O)N[C@H](C(=O)N[C@@H](CC(N)=O)C(=O)N[C@@H](Cc1c[nH]cn1)C(=O)N[C@@H](CCCCN)C(=O)O)[C@@H](C)O)C(C)C [pfCYOX-1(1-13)] (For-MFVNRWLYSTNHK-OH; C-terminus assumed) | concentration-dependent transition of FPRL1-GFP protein from cell membrane to cytoplasm | bell-shaped dose-dependent cell migration stimulating activity
both activities are equivalent | CHO-Met-Thr-Asn-Ile-Arg-Lys-Ser-His-Pro-Leu-Met-Lys-Ile-Ile-Asn ({CHO}-MTNIRKSHPLMKIIN) [porcine intrinsic FPRL1 ligand P1, purified from porcine stomach; N-terminal peptide of N-formylated porcine cytochrome b] | – | –
both activities are equivalent | formyl-MTNIRKSHPLMKIINN (For-MTNIRKSHPLMKIINN) [16 amino acid-peptide comprising 15 amino acids at N-terminus of N-terminally formylated porcine cytochrome B] | – | –
